Assay results published in ChEMBL document CHEMBL1151767, “Lipidyl pseudopteranes A-F: isolation, biomimetic synthesis, and PTP1B inhibitory activity of a new class of pseudopteranoids from the Gorgonian Pseudopterogorgia acerosa” (J Nat Prod, 2008).
Calls of active or inactive are those of the source. The calls are words filed in the database; no cut-off is given here.

Columns and labels:
[1] = target: T1, Tyrosine-protein phosphatase non-receptor type 1 (Homo sapiens) (UniProt P18031); assay: Inhibition of GST-tagged PTP1B at 100 ug/mL
T1 sequence (whole entry): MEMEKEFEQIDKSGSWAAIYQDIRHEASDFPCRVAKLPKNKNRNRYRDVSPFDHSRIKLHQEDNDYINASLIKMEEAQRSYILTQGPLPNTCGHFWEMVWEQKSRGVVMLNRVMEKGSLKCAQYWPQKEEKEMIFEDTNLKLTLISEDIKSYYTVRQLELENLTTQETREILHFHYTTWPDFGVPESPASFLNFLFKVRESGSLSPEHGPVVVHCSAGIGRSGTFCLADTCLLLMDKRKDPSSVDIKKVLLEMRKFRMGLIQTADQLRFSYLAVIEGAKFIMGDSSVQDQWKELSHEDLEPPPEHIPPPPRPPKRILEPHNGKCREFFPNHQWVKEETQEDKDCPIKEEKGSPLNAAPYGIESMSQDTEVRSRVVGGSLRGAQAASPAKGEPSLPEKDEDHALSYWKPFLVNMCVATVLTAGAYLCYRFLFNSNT

[2] = target: T2, Dual specificity protein phosphatase 22 (Homo sapiens) (UniProt Q9NRW4); assay: Inhibition of GST-tagged PTP MKPX at 100 ug/mL
T2 sequence (whole entry): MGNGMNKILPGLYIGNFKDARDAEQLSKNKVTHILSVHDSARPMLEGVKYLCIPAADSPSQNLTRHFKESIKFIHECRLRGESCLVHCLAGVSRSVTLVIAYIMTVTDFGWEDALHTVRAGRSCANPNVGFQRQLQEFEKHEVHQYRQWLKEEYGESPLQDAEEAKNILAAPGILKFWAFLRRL

[3] = target: Tyrosine-protein phosphatase non-receptor type 6 (Homo sapiens) (UniProt P29350); assay: Inhibition of GST-tagged PTP SHP1 at 100 ug/mL
[4] = target: Receptor-type tyrosine-protein phosphatase F (Homo sapiens) (UniProt P10586); assay: Inhibition of GST-tagged PTP LAR at 100 ug/mL
[5] = target: T3, Tyrosine-protein phosphatase non-receptor type 1 (Homo sapiens, UniProt P18031); assay: Inhibition of GST-tagged PTP1B
T3 sequence (P18031 whole entry): T1 sequence (whole entry)

Receptor-type tyrosine-protein phosphatase F (Homo sapiens), sequence (P10586 whole entry): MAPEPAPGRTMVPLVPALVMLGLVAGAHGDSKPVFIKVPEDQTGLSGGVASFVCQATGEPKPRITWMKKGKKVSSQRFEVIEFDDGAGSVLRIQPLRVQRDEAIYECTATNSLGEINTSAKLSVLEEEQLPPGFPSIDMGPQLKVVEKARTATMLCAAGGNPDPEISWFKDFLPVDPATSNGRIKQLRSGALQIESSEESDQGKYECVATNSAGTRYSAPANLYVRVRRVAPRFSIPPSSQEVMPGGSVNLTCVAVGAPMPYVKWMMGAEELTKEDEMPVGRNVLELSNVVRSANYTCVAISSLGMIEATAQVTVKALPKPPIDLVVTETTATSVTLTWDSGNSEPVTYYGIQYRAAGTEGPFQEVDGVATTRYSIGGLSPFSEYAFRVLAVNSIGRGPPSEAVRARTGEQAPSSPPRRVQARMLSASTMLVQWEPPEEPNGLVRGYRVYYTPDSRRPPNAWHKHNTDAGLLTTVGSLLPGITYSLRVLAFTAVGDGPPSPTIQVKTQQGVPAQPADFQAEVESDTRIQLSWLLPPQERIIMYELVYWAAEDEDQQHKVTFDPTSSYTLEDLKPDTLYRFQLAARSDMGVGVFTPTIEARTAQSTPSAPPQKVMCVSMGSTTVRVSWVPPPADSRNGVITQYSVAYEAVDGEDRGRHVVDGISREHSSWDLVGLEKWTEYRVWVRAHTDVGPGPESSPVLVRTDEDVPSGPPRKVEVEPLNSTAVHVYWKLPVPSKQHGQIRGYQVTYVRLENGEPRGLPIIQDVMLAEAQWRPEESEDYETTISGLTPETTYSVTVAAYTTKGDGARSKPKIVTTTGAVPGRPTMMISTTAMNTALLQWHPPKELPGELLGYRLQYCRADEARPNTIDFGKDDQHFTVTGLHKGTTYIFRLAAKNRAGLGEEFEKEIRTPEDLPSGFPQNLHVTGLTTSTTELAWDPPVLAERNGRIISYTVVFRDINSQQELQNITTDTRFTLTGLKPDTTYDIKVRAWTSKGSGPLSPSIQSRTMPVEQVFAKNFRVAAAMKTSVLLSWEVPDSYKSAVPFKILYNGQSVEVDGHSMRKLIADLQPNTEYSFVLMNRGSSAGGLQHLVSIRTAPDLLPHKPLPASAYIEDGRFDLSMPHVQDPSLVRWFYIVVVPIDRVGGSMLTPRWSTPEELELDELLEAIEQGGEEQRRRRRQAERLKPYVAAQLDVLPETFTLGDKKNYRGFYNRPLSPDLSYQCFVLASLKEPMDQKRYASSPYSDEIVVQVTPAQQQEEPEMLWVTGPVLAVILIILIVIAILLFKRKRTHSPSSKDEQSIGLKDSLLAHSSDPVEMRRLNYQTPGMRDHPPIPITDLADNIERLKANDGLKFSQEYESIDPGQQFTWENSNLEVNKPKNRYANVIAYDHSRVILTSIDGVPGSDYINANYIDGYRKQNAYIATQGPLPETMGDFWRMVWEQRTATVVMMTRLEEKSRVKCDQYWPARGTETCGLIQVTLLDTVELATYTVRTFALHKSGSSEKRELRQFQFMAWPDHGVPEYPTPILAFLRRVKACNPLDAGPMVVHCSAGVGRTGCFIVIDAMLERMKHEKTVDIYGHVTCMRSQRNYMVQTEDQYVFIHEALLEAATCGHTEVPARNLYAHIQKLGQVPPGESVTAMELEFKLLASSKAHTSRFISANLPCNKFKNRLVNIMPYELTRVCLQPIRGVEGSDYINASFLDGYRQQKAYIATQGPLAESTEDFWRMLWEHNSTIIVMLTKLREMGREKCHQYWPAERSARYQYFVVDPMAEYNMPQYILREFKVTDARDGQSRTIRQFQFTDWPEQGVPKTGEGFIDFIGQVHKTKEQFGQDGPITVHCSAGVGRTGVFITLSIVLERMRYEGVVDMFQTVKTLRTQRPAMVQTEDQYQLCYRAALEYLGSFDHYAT
Tyrosine-protein phosphatase non-receptor type 6 (Homo sapiens), sequence (P29350 whole entry): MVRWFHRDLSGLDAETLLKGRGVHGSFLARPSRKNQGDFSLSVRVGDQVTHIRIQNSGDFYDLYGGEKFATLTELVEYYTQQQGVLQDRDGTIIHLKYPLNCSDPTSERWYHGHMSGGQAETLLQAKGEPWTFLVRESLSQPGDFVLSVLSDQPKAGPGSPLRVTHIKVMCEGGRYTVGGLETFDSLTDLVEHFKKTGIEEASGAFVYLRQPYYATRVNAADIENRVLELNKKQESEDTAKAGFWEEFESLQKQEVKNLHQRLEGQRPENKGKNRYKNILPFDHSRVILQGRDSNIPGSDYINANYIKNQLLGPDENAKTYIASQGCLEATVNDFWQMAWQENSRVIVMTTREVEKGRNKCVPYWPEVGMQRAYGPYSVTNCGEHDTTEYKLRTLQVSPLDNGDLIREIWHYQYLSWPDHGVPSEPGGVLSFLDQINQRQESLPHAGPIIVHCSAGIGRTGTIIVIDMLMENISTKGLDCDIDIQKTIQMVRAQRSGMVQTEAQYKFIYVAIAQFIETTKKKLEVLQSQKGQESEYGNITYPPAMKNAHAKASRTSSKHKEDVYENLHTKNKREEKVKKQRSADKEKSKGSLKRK

Activity [1]	Activity [2]	Activity [3]	Activity [4]	IC50 [5]	SMILES
Active	inactive	inactive	inactive		C=C(C)[C@H]1CC2=C(C(=O)OC)C=C(O2)[C@H](C(=C)C)[C@H]2C=C(C(=O)O2)C(OC(=O)CCCCCCCCCCCCCCC)C1 (some centres undefined)
Active	inactive	inactive	inactive	113 µM	C=C(C)[C@H]1C2=CC(C(=O)OC)=C(C[C@H](C(=C)C)[C@@H](O)C(OC(=O)CCCCCCCCCCCCCCC)C3=C[C@H]1OC3=O)O2 (single isomer, unassigned) [LIPIDYL PSEUDOPTERANE A]
